The nature of data set [1]: Toxicity in KM mouse assessed as abnormality in spleen at 20 mg/kg, sc by H and E staining based analysis. The class given is organism-based. As to conditions: in vivo.
Data set [2] can be described thus: Toxicity in BALB/c mouse assessed as change in serum biochemical parameters at 10 mg/kg, ip measured for 7 days. As to conditions: in vivo, 168 h, time 7 day. The class given is organism-based.
The nature of data set [3]: Toxicity in KM mouse assessed as abnormality in kidney at 20 mg/kg, sc by H and E staining based analysis. The class given is organism-based. The note with it: in vivo.
Data set [4] in a line: Toxicity in KM mouse assessed as abnormality in lung at 20 mg/kg, sc by H and E staining based analysis. The class given is organism-based. The note with it: in vivo.
Data set [5] can be described thus: Toxicity in BALB/c mouse assessed as mortality rate at 20 mg/kg, ip measured for 7 days. The note with it: in vivo, time 7 day, read-out: Activity. The class given is organism-based.
The nature of data set [6]: Toxicity in KM mouse assessed as erythema on dorsal skin at 30 mg/kg, sc. The class given is organism-based. As to conditions: in vivo.
Data set [7] can be described thus: Toxicity in KM mouse assessed as abnormality in heart at 20 mg/kg, sc by H and E staining based analysis. The class given is organism-based. The note with it: in vivo.
Data set [8] can be described thus: Toxicity in KM mouse assessed as adverse reactions at <=20 mg/kg, sc. The class given is organism-based. As to conditions: in vivo.
Data set [9] can be described thus: Toxicity in BALB/c mouse assessed as obvious damage in tissues of organs at 10 mg/kg, ip measured for 7 days by H and E staining based analysis. The class given is organism-based. As to conditions: in vivo, 168 h, time 7 day.
A short description of data set [10]: Toxicity in KM mouse assessed as erythema on dorsal skin at <=20 mg/kg, sc. The class given is organism-based. As to conditions: in vivo.
A short description of data set [11]: Toxicity in BALB/c mouse assessed as change in serum biochemical parameters at 30 mg/kg, ip measured for 7 days. The note with it: in vivo, 168 h, time 7 day. The class given is organism-based.
Data set [12] concerns Staphylococcus aureus. Kind of data set: Antibacterial activity against methicillin-resistant Staphylococcus aureus M11 infected in BALB/c mouse model of Sepsis assessed as reduction in bacterial load in kidney at 10 mg/kg, ip measured after 48 hrs. The class given is functional.
In data set [13] the test system is Staphylococcus aureus. Kind of data set: Antibacterial activity against methicillin-resistant Staphylococcus aureus M11 infected in BALB/c mouse model of Sepsis assessed as reduction in bacterial load in liver at 10 mg/kg, ip measured after 48 hrs. The class given is functional.
Data set [14] in a line: Toxicity in KM mouse assessed as abnormality in lung at 30 mg/kg, sc by H and E staining based analysis. The class given is organism-based. The note with it: in vivo.
Data set [15] can be described thus: Toxicity in BALB/c mouse assessed as mortality rate at 40 mg/kg, ip measured for 7 days. The class given is organism-based. As to conditions: in vivo, time 7 day, read-out: Activity.
Data set [16] can be described thus: Toxicity in BALB/c mouse model of Sepsis infected with methicillin-resistant Staphylococcus aureus M11 assessed as survival rate at 30 mg/kg, ip measured after 7 days. The note with it: in vivo, 168 h, time 7 day. The class given is organism-based.
The nature of data set [17]: Binding affinity to phosphatidylglycerol assessed as change in entropy by ITC analysis. (In general: ITC needs no label: the signal is the heat of the interaction.)
Data set [18] is described as follows: Binding affinity to phosphatidylglycerol assessed as association constant by ITC analysis.
Data set [19] relates to Staphylococcus aureus. Briefly: Antibacterial activity against methicillin-resistant Staphylococcus aureus M11 infected in BALB/c mouse model of Sepsis assessed as reduction in bacterial load in kidney at 20 mg/kg, ip measured after 48 hrs. The class given is functional.
Data set [20] relates to Staphylococcus aureus. Briefly: Antibacterial activity against methicillin-resistant Staphylococcus aureus M11 infected in BALB/c mouse model of Sepsis assessed as reduction in bacterial load in spleen at 20 mg/kg, ip measured after 48 hrs. The class given is functional.
Data set [21] is described as follows: Toxicity in KM mouse assessed as adverse reactions at <=30 mg/kg, sc. The class given is organism-based. As to conditions: in vivo.
In data set [22] the test system is Staphylococcus aureus. Kind of data set: Antibacterial activity against methicillin-resistant Staphylococcus aureus M11 infected in BALB/c mouse model of Sepsis assessed as reduction in bacterial load in spleen at 10 mg/kg, ip measured after 48 hrs. The class given is functional.
In data set [23] the test system is Staphylococcus aureus. Kind of data set: Antibacterial activity against methicillin-resistant Staphylococcus aureus M11 infected in BALB/c mouse model of Sepsis assessed as reduction in serum IL-6 level administered intraperitoneally measured after 48 hrs. The class given is functional, organism-based. The note with it: dose 10-20 mg/kg, route ip.
The test system of data set [24] is Staphylococcus aureus. Kind of data set: Antibacterial activity against methicillin-resistant Staphylococcus aureus M11 infected in BALB/c mouse model of Sepsis assessed as vacuolar degeneration in renal epithelial cells at 10 mg/kg, ip measured after 48 hrs. The class given is functional, organism-based.
Data set [25] can be described thus: Toxicity in KM mouse assessed as abnormality in kidney at 30 mg/kg, sc by H and E staining based analysis. The class given is organism-based. As to conditions: in vivo.
Data set [26] deals with Staphylococcus aureus. Briefly: Antibacterial activity against methicillin-resistant Staphylococcus aureus M11 infected in BALB/c mouse model of Sepsis assessed as vacuolar degeneration in liver cells at 10 to 20 mg/kg, ip measured after 48 hrs. The note with it: dose 10-20 mg/kg. The class given is functional, organism-based.
The nature of data set [27]: Toxicity in BALB/c mouse assessed as lesions in tissues of organs at 30 mg/kg, ip measured for 7 days by H and E staining based analysis. The class given is organism-based. The note with it: in vivo, 168 h, time 7 day.
Data set [28] relates to Staphylococcus aureus. Briefly: Antibacterial activity against methicillin-resistant Staphylococcus aureus M11 infected in BALB/c mouse model of Sepsis assessed as reduction in bacterial load in liver at 20 mg/kg, ip measured after 48 hrs. The class given is functional.
The subject of data set [29] is Staphylococcus aureus. Briefly: Antibacterial activity against methicillin-resistant Staphylococcus aureus M11 infected in BALB/c mouse model of Sepsis assessed as reduction in serum TNF-alpha level administered intraperitoneally measured after 48 hrs. The class given is functional, organism-based. The note with it: dose 10-20 mg/kg, route ip.
The nature of data set [30]: Toxicity in KM mouse assessed as abnormality in liver at 30 mg/kg, sc by H and E staining based analysis. The class given is organism-based. The note with it: in vivo.

The structures appear in SMILES notation. The source made the active and inactive calls. The calls are words filed in the database; no cut-off is given here.

For `CCCCCNC(=O)C[n+]1ccc(SCCCCCOc2ccc3ccc(=O)oc3c2CC=C(C)C)cc1.[Br-]`, the Activity entry in data set [1] was “Non-toxic”; in data set [2], “Non-toxic”; in data set [3], “Non-toxic”; in data set [4] it was “Non-toxic”; in [6], “Toxic”; in data set [7] it was “Non-toxic”. Besides, the Activity entry in data set [8], in data set [9] and in [10] was “Non-toxic” each time. In [5], the mortality at 168 h came to 83.3%.
`CC(C)=CCc1c(OCCCCSc2cc[n+](CC(=O)N(CC(C)C)CC(C)C)cc2)ccc2ccc(=O)oc12.[Br-]`: the Activity result in [11] is “Non-toxic”; in data set [12] it was 1.81 log10CFU/ml; in [13], 1.84 log10CFU/ml; in data set [14] it was “Non-toxic”; in data set [19], 4.24 log10CFU/ml; in [20], 4.33 log10CFU/ml. Besides, the Activity entry was “Non-toxic” in data set [21]; 1.62 log10CFU/ml in data set [22]; “Dose-dependent-effect” in data set [23]; “Non-toxic” in data set [25]; “Non-toxic” in data set [27]; 3.81 log10CFU/ml in data set [28]. The Activity result was “Dose-dependent-effect” in [29] and “Non-toxic” in [30]. Further, the mortality at 168 h in [15] was 83.3%. Moreover, the Survival in data set [16] was found to be 100%. Further, in data set [17], the deltaS is 11.7 cal/mol/deg. Moreover, in data set [18], the Ka was 3.53 10^4/M. For the same molecule, the outcome in data set [24] was inactive. Also, the outcome in [26] was Active.

(Values after ChEMBL document CHEMBL6109153, “Development of Membrane-Targeting Osthole Derivatives Containing Pyridinium Quaternary Ammonium Moieties with Potent Anti-Methicillin-Resistant Staphylococcus aureus Properties” (J Med Chem, 2025).)
